System: MV-4-11 cells
Test: Gene expression microarray analysis (Affymetrix PrimeView) and GSEA
Assay type: cell-based, human
Design: RFU PODN (11730768_x_at) / Fold change /veh PODN (11730768_x_at) / RFU LINC00158 (11744669_a_at) / Fold change /veh LINC00158 (11744669_a_at) / RFU DUSP10 (11751237_a_at) / Fold change /veh DUSP10 (11751237_a_at) / RFU ID3 (11757404_x_at) / Fold change /veh ID3 (11757404_x_at) / RFU PLEKHG5 (11737974_s_at) / Fold change /veh PLEKHG5 (11737974_s_at) / RFU LRRC4B (11730491_at) / Fold change /veh LRRC4B (11730491_at) / RFU GIMAP4 (11747438_a_at) / Fold change /veh GIMAP4 (11747438_a_at) / RFU KRT8 (11758183_x_at) / Fold change /veh KRT8 (11758183_x_at) / RFU CNN1 (11734310_a_at) / Fold change /veh CNN1 (11734310_a_at) / RFU VPS37D (11726825_at) / Fold change /veh VPS37D (11726825_at) / RFU C10orf10 (11716522_x_at) / Fold change /veh C10orf10 (11716522_x_at) / RFU KIR2DL2 /// KIR2DL4 /// KIR2DL5A /// KIR2DL5B /// KIR2DS1 /// KIR2DS2 /// KIR2DS3 /// KIR2DS4 /// KIR3DL3 /// KIR3DL3 /// KIR3DS1 (11738374_at) / Fold change /veh KIR2DL2 /// KIR2DL4 /// KIR2DL5A /// KIR2DL5B /// KIR2DS1 /// KIR2DS2 /// KIR2DS3 /// KIR2DS4 /// KIR3DL3 /// KIR3DL3 /// KIR3DS1 (11738374_at) / RFU C1QL1 (11718748_at) / Fold change /veh C1QL1 (11718748_at) / RFU TMPRSS4 (11747572_a_at) / Fold change /veh TMPRSS4 (11747572_a_at) / RFU HAMP (11756126_x_at) / Fold change /veh HAMP (11756126_x_at) / RFU RNFT2 (11725882_a_at) / Fold change /veh RNFT2 (11725882_a_at) / RFU NR4A2 (11747474_a_at) / Fold change /veh NR4A2 (11747474_a_at) / RFU ABCC12 (11746883_a_at) / Fold change /veh ABCC12 (11746883_a_at) / RFU TMEM136 (11760407_x_at) / Fold change /veh TMEM136 (11760407_x_at) / RFU CLDN22 /// WWC2 (11732394_at) / Fold change /veh CLDN22 /// WWC2 (11732394_at) / RFU HLA-DPB1 (11760878_x_at) / Fold change /veh HLA-DPB1 (11760878_x_at) / RFU SPINT1 (11716480_a_at) / Fold change /veh SPINT1 (11716480_a_at) / RFU GAP43 (11754022_s_at) / Fold change /veh GAP43 (11754022_s_at) / RFU A4GNT (11735810_at) / Fold change /veh A4GNT (11735810_at) / RFU PRB3 (11715151_x_at) / Fold change /veh PRB3 (11715151_x_at) / RFU TUBB4B (11761932_at) / Fold change /veh TUBB4B (11761932_at) / RFU CAPN14 (11732068_a_at) / Fold change /veh CAPN14 (11732068_a_at) / RFU TMCC2 (11721928_a_at) / Fold change /veh TMCC2 (11721928_a_at) / RFU IRGQ (11745062_a_at) / Fold change /veh IRGQ (11745062_a_at) / RFU FAM174B (11720279_a_at) / Fold change /veh FAM174B (11720279_a_at) / RFU TMPRSS4 (11748680_a_at) / Fold change /veh TMPRSS4 (11748680_a_at) / RFU FAM212B (11763350_a_at) / Fold change /veh FAM212B (11763350_a_at) / RFU PLEKHG5 (11743358_a_at) / Fold change /veh PLEKHG5 (11743358_a_at) / RFU ZSCAN30 (11745921_a_at) / Fold change /veh ZSCAN30 (11745921_a_at) / RFU CMKLR1 (11741424_a_at) / Fold change /veh CMKLR1 (11741424_a_at) / RFU LOC101060620 /// MAPK8IP1 (11723275_at) / Fold change /veh LOC101060620 /// MAPK8IP1 (11723275_at) / RFU SPTSSB (11747773_x_at) / Fold change /veh SPTSSB (11747773_x_at) / RFU PRSS12 (11739890_at) / Fold change /veh PRSS12 (11739890_at) / RFU BIN1 (11741810_x_at) / Fold change /veh BIN1 (11741810_x_at) / RFU WNT11 (11732464_a_at) / Fold change /veh WNT11 (11732464_a_at) / RFU C10orf10 (11716521_a_at) / Fold change /veh C10orf10 (11716521_a_at) / RFU C5orf56 (11738089_at) / Fold change /veh C5orf56 (11738089_at) / RFU CYB561 (11721691_x_at) / Fold change /veh CYB561 (11721691_x_at) / RFU ANKRD19P (11752326_a_at) / Fold change /veh ANKRD19P (11752326_a_at) / RFU OR2T12 /// OR2T33 /// OR2T8 (11738714_s_at) / Fold change /veh OR2T12 /// OR2T33 /// OR2T8 (11738714_s_at) / RFU VCAN (11748164_a_at) / Fold change /veh VCAN (11748164_a_at) / RFU JSRP1 (11732532_at) / Fold change /veh JSRP1 (11732532_at) / RFU KRTAP10-11 (11738290_x_at) / Fold change /veh KRTAP10-11 (11738290_x_at) / RFU MYO3A (11730013_a_at) / Fold change /veh MYO3A (11730013_a_at) / RFU EBF3 (11725865_a_at) / Fold change /veh EBF3 (11725865_a_at) / RFU CAMK2N1 (11719241_x_at) / Fold change /veh CAMK2N1 (11719241_x_at) / RFU C5orf56 (11738088_a_at) / Fold change /veh C5orf56 (11738088_a_at) / RFU OLFML3 (11715873_a_at) / Fold change /veh OLFML3 (11715873_a_at) / RFU LOC100653217 /// NTM (11731650_a_at) / Fold change /veh LOC100653217 /// NTM (11731650_a_at) / RFU MAPK11 (11762145_a_at) / Fold change /veh MAPK11 (11762145_a_at) / RFU FIZ1 (11724087_x_at) / Fold change /veh FIZ1 (11724087_x_at) / RFU OASL (11726364_x_at) / Fold change /veh OASL (11726364_x_at) / RFU SOX15 (11748057_x_at) / Fold change /veh SOX15 (11748057_x_at) / RFU CD79A (11719716_a_at) / Fold change /veh CD79A (11719716_a_at) / RFU HIST1H1D (11736915_at) / Fold change /veh HIST1H1D (11736915_at) / RFU CASKIN2 (11723855_a_at) / Fold change /veh CASKIN2 (11723855_a_at) / RFU LOC730098 (11760151_x_at) / Fold change /veh LOC730098 (11760151_x_at) / RFU OR4N2 (11742367_at) / Fold change /veh OR4N2 (11742367_at) / RFU PRRT2 (11749266_a_at) / Fold change /veh PRRT2 (11749266_a_at) / RFU SNX32 (11753110_a_at) / Fold change /veh SNX32 (11753110_a_at) / RFU CDHR5 (11726645_a_at) / Fold change /veh CDHR5 (11726645_a_at) / RFU RCAN1 (11760418_a_at) / Fold change /veh RCAN1 (11760418_a_at) / RFU FAM167A (11723789_a_at) / Fold change /veh FAM167A (11723789_a_at) / RFU FAM26E (11764081_at) / Fold change /veh FAM26E (11764081_at) / RFU ISYNA1 (11749810_s_at) / Fold change /veh ISYNA1 (11749810_s_at) / RFU ACY1 (11761880_at) / Fold change /veh ACY1 (11761880_at) / RFU 11764098_at / Fold change /veh 11764098_at / RFU SAMD14 (11745864_x_at) / Fold change /veh SAMD14 (11745864_x_at) / RFU NPB (11741838_a_at) / Fold change /veh NPB (11741838_a_at) / RFU TMPRSS6 (11731388_a_at) / Fold change /veh TMPRSS6 (11731388_a_at) / RFU KRTAP10-2 (11738614_at) / Fold change /veh KRTAP10-2 (11738614_at) / RFU ARHGAP8 /// PRR5-ARHGAP8 (11727945_x_at) / Fold change /veh ARHGAP8 /// PRR5-ARHGAP8 (11727945_x_at) / RFU KRTAP5-7 /// NADSYN1 (11734609_at) / Fold change /veh KRTAP5-7 /// NADSYN1 (11734609_at) / RFU RASL12 (11751679_a_at) / Fold change /veh RASL12 (11751679_a_at) / RFU CDKN2B (11736163_a_at) / Fold change /veh CDKN2B (11736163_a_at) / RFU PRF1 (11729649_at) / Fold change /veh PRF1 (11729649_at) / RFU, ZNF638 /// ZNF638-IT1 / Fold change vs veh, ZNF638 /// ZNF638-IT1 / RFU, PANK3 / Fold change vs veh, PANK3 / RFU, SH3YL1 / Fold change vs veh, SH3YL1 / RFU, ZEB2 / Fold change vs veh, ZEB2 / RFU, NRIP1 / Fold change vs veh, NRIP1 / RFU, PTTG1IP / Fold change vs veh, PTTG1IP / RFU, CAPN2 / Fold change vs veh, CAPN2 / RFU, MED14 / Fold change vs veh, MED14 / RFU, SNORA58 / Fold change vs veh, SNORA58 / RFU, C1orf63 / Fold change vs veh, C1orf63 / RFU, LRRFIP1 / Fold change vs veh, LRRFIP1 / RFU, NDUFAF7 / Fold change vs veh, NDUFAF7 / RFU, SLC12A2 / Fold change vs veh, SLC12A2 / RFU, IBTK / Fold change vs veh, IBTK / RFU, ESF1 / Fold change vs veh, ESF1 / Fold change vs veh, TMEM50B / RFU, TAOK1 / Fold change vs veh, TAOK1 / RFU, ACBD3 / Fold change vs veh, ACBD3 / RFU, TMA16 / Fold change vs veh, TMA16 / RFU, RWDD3 / Fold change vs veh, RWDD3 / RFU, BCAT1 / Fold change vs veh, BCAT1 / RFU, EDEM3 / Fold change vs veh, EDEM3 / RFU, TMEM33 / Fold change vs veh, TMEM33 / RFU, WDR75 / Fold change vs veh, WDR75 / RFU, AHCTF1 / Fold change vs veh, AHCTF1 / RFU, TFRC / Fold change vs veh, TFRC / RFU, ZDHHC17 / Fold change vs veh, ZDHHC17 / RFU, NOM1 / Fold change vs veh, NOM1 / RFU, ARL8B / Fold change vs veh, ARL8B / RFU, ZBTB11 / Fold change vs veh, ZBTB11 / RFU, TAMM41 / Fold change vs veh, TAMM41 / RFU, KIAA1704 /// LOC100996395 / Fold change vs veh, KIAA1704 /// LOC100996395 / RFU, ING1 / Fold change vs veh, ING1 / RFU, TRMT61B / Fold change vs veh, TRMT61B / RFU, FUBP3 / Fold change vs veh, FUBP3 / RFU, TP53 / Fold change vs veh, TP53 / RFU, TNKS2 / Fold change vs veh, TNKS2 / RFU, ZFP14 / Fold change vs veh, ZFP14 / RFU, ACTR2 / Fold change vs veh, ACTR2 / RFU, PPP3R1 / Fold change vs veh, PPP3R1 / RFU, PIK3R1 / Fold change vs veh, PIK3R1 / RFU, HNRNPA1 / Fold change vs veh, HNRNPA1 / RFU, RNF170 / Fold change vs veh, RNF170 / RFU, ZNF28 / Fold change vs veh, ZNF28 / RFU, RNGTT / Fold change vs veh, RNGTT / RFU, OGT / Fold change vs veh, OGT / RFU, BRD1 / Fold change vs veh, BRD1 / RFU, MARS / Fold change vs veh, MARS / RFU, ZNF655 / Fold change vs veh, ZNF655 / RFU, FAHD1 / Fold change vs veh, FAHD1 / RFU, BDP1 / Fold change vs veh, BDP1 / RFU, LRRCC1 / Fold change vs veh, LRRCC1 / RFU, ARID1A / Fold change vs veh, ARID1A / RFU, ZNF146 / Fold change vs veh, ZNF146 / RFU, ZNF330 / Fold change vs veh, ZNF330 / RFU, GPN3 / Fold change vs veh, GPN3 / RFU, C9orf123 / Fold change vs veh, C9orf123 / RFU, N4BP2L2 / Fold change vs veh, N4BP2L2 / RFU, ARFIP1 / Fold change vs veh, ARFIP1 / RFU, FAM179B / Fold change vs veh, FAM179B / RFU, BCL10 / Fold change vs veh, BCL10 / RFU, UHRF1BP1L / Fold change vs veh, UHRF1BP1L / RFU, BET1 / Fold change vs veh, BET1 / RFU, CNOT2 / Fold change vs veh, CNOT2 / RFU, ZNF268 / Fold change vs veh, ZNF268 / Fold change vs veh, ZNF507 / RFU, DGCR2 / Fold change vs veh, DGCR2 / RFU, WDSUB1 / Fold change vs veh, WDSUB1 / Fold change vs veh, HSP90B1 /// MIR3652 / RFU, ADSS / Fold change vs veh, ADSS / RFU, GK / Fold change vs veh, GK / RFU, ZNF148 / Fold change vs veh, ZNF148 / RFU, TAF9 / Fold change vs veh, TAF9 / RFU, SLC1A5 / Fold change vs veh, SLC1A5 / RFU, SLMO2 / Fold change vs veh, SLMO2 / RFU, ABCC4 / Fold change vs veh, ABCC4 / RFU, LOC101060439 /// RAP1B / Fold change vs veh, LOC101060439 /// RAP1B / RFU, RFX7 / Fold change vs veh, RFX7 / RFU, GTPBP10 / Fold change vs veh, GTPBP10 / RFU, CNEP1R1 / Fold change vs veh, CNEP1R1 / RFU, BIVM-ERCC5 /// ERCC5 / Fold change vs veh, BIVM-ERCC5 /// ERCC5 / RFU, ILF3 / Fold change vs veh, ILF3 / RFU 11762660_at / Fold change /veh 11762660_at / RFU VCAN (11757783_s_at) / Fold change /veh VCAN (11757783_s_at) / RFU DDX43 (11728927_at) / Fold change /veh DDX43 (11728927_at) / RFU KRT8 (11758188_x_at) / Fold change /veh KRT8 (11758188_x_at) / RFU NKD1 (11759106_at) / Fold change /veh NKD1 (11759106_at) / RFU SRD5A1 (11742802_a_at) / Fold change /veh SRD5A1 (11742802_a_at) / RFU TPSAB1 /// TPSB2 (11721975_s_at) / Fold change /veh TPSAB1 /// TPSB2 (11721975_s_at) / RFU GSTM3 (11746129_a_at) / Fold change /veh GSTM3 (11746129_a_at) / RFU IL23R (11737362_x_at) / Fold change /veh IL23R (11737362_x_at) / RFU TMEM51 (11727254_a_at) / Fold change /veh TMEM51 (11727254_a_at) / RFU PIWIL2 (11732686_x_at) / Fold change /veh PIWIL2 (11732686_x_at) / RFU ORM1 (11744905_x_at) / Fold change /veh ORM1 (11744905_x_at) / RFU CCDC152 (11743942_at) / Fold change /veh CCDC152 (11743942_at) / RFU ECM1 (11717891_a_at) / Fold change /veh ECM1 (11717891_a_at) / RFU IL23R (11748794_a_at) / Fold change /veh IL23R (11748794_a_at) / RFU TNFAIP8L3 (11732012_x_at) / Fold change /veh TNFAIP8L3 (11732012_x_at) / RFU MBOAT4 (11741988_at) / Fold change /veh MBOAT4 (11741988_at) / RFU 11764193_at / Fold change /veh 11764193_at / RFU TMEM53 (11763286_at) / Fold change /veh TMEM53 (11763286_at) / RFU MAGEB2 (11727129_at) / Fold change /veh MAGEB2 (11727129_at) / RFU TMEM200A (11744735_a_at) / Fold change /veh TMEM200A (11744735_a_at) / RFU CCDC152 (11751479_a_at) / Fold change /veh CCDC152 (11751479_a_at) / RFU FAM211A (11726209_a_at) / Fold change /veh FAM211A (11726209_a_at) / RFU RGS16 (11746705_a_at) / Fold change /veh RGS16 (11746705_a_at) / RFU VCAN (11755009_s_at) / Fold change /veh VCAN (11755009_s_at) / RFU RHOB (11743442_s_at) / Fold change /veh RHOB (11743442_s_at) / RFU RGS16 (11720943_a_at) / Fold change /veh RGS16 (11720943_a_at) / RFU RGS16 (11720944_at) / Fold change /veh RGS16 (11720944_at) / RFU, VPS4B / Fold change vs veh, VPS4B / RFU, CREB1 / Fold change vs veh, CREB1 / RFU, DNAJC13 / Fold change vs veh, DNAJC13 / RFU, GNAQ / Fold change vs veh, GNAQ / RFU, CDK5R1 / Fold change vs veh, CDK5R1 / RFU, ZRANB3 / Fold change vs veh, ZRANB3 / RFU, CUL4A / Fold change vs veh, CUL4A / RFU, CCNY / Fold change vs veh, CCNY / RFU, UFL1 / Fold change vs veh, UFL1 / RFU, COG3 / Fold change vs veh, COG3 / RFU, DIAPH2 / Fold change vs veh, DIAPH2 / RFU, SKA2 / Fold change vs veh, SKA2 / RFU, AFF3 / Fold change vs veh, AFF3 / RFU, LMF1 / Fold change vs veh, LMF1 / RFU, IPO11 / Fold change vs veh, IPO11 / RFU, DFFB / Fold change vs veh, DFFB / RFU, FOXP1 / Fold change vs veh, FOXP1 / RFU, CARD8 / Fold change vs veh, CARD8 / RFU, STRN3 / Fold change vs veh, STRN3 / RFU, ADK / Fold change vs veh, ADK / RFU, RASSF2 / Fold change vs veh, RASSF2 / RFU, WIPF1 / Fold change vs veh, WIPF1 / RFU, LARP1B / Fold change vs veh, LARP1B / RFU, RASA1 / Fold change vs veh, RASA1 / RFU, RB1 / Fold change vs veh, RB1 / RFU, PPFIA1 / Fold change vs veh, PPFIA1 / RFU, MAT2A / Fold change vs veh, MAT2A / RFU, CCT5 / Fold change vs veh, CCT5 / RFU, WDR92 / Fold change vs veh, WDR92 / RFU, CUX1 / Fold change vs veh, CUX1 / RFU, TTC7A / Fold change vs veh, TTC7A / RFU, TMEM135 / Fold change vs veh, TMEM135 / RFU, DEPTOR / Fold change vs veh, DEPTOR / RFU, CPM / Fold change vs veh, CPM / RFU, DNAJB6 / Fold change vs veh, DNAJB6 / RFU, CACNA2D3 / Fold change vs veh, CACNA2D3 / RFU, DTX4 / Fold change vs veh, DTX4 / RFU, TFCP2 / Fold change vs veh, TFCP2 / RFU, GMCL1 /// GMCL1P1 / Fold change vs veh, GMCL1 /// GMCL1P1 / RFU, AEBP2 / Fold change vs veh, AEBP2 / RFU, SNHG1 /// SNORD22 /// SNORD25 /// SNORD26 /// SNORD27 /// SNORD28 /// SNORD29 /// SNORD31 / Fold change vs veh, SNHG1 /// SNORD22 /// SNORD25 /// SNORD26 /// SNORD27 /// SNORD28 /// SNORD29 /// SNORD31 / Fold change (Aza/veh), C12orf56 (ProbeSet 11735607_a_at) / Fold change (ACY-1035/veh), C12orf56 (ProbeSet 11735607_a_at) / Fold change (Aza/veh), FGFR1OP (ProbeSet 11751329_s_at) / Fold change (ACY-1035/veh), FGFR1OP (ProbeSet 11751329_s_at) / Fold change (Aza/veh), VPS36 (ProbeSet 11739960_a_at) / Fold change (ACY-1035/veh), VPS36 (ProbeSet 11739960_a_at) / RFU SYPL1 (11715823_x_at) / Fold change /veh SYPL1 (11715823_x_at) / RFU IGFBP7 (11715501_s_at) / Fold change /veh IGFBP7 (11715501_s_at) / RFU REEP3 (11722064_at) / Fold change /veh REEP3 (11722064_at) / RFU IGLL1 (11728026_x_at) / Fold change /veh IGLL1 (11728026_x_at): dose or concentration left out as unconfirmed
Settings: ProbeSet 11758397_s_at; LIST B

Nc1ccc(-c2cccs2)cc1NC(=O)c1ccc2c(c1)cc(C1CC1)n2CCN1CCOCC1 [ACY-1035]
Fold change vs veh, RNF170: 0.96

Source: PMC5218480 (PLoS ONE, 2017)
